Measured values taken from paper PMC5218480 (PLoS ONE, 2017).

Test system: MV-4-11 cells
Assay: Gene expression microarray analysis (Affymetrix PrimeView) and GSEA
Format: cell-based, human
Set-up: RFU PODN (11730768_x_at) / Fold change /veh PODN (11730768_x_at) / RFU LINC00158 (11744669_a_at) / Fold change /veh LINC00158 (11744669_a_at) / RFU DUSP10 (11751237_a_at) / Fold change /veh DUSP10 (11751237_a_at) / RFU ID3 (11757404_x_at) / Fold change /veh ID3 (11757404_x_at) / RFU PLEKHG5 (11737974_s_at) / Fold change /veh PLEKHG5 (11737974_s_at) / RFU LRRC4B (11730491_at) / Fold change /veh LRRC4B (11730491_at) / RFU GIMAP4 (11747438_a_at) / Fold change /veh GIMAP4 (11747438_a_at) / RFU KRT8 (11758183_x_at) / Fold change /veh KRT8 (11758183_x_at) / RFU CNN1 (11734310_a_at) / Fold change /veh CNN1 (11734310_a_at) / RFU VPS37D (11726825_at) / Fold change /veh VPS37D (11726825_at) / RFU C10orf10 (11716522_x_at) / Fold change /veh C10orf10 (11716522_x_at) / RFU KIR2DL2 /// KIR2DL4 /// KIR2DL5A /// KIR2DL5B /// KIR2DS1 /// KIR2DS2 /// KIR2DS3 /// KIR2DS4 /// KIR3DL3 /// KIR3DL3 /// KIR3DS1 (11738374_at) / Fold change /veh KIR2DL2 /// KIR2DL4 /// KIR2DL5A /// KIR2DL5B /// KIR2DS1 /// KIR2DS2 /// KIR2DS3 /// KIR2DS4 /// KIR3DL3 /// KIR3DL3 /// KIR3DS1 (11738374_at) / RFU C1QL1 (11718748_at) / Fold change /veh C1QL1 (11718748_at) / RFU TMPRSS4 (11747572_a_at) / Fold change /veh TMPRSS4 (11747572_a_at) / RFU HAMP (11756126_x_at) / Fold change /veh HAMP (11756126_x_at) / RFU RNFT2 (11725882_a_at) / Fold change /veh RNFT2 (11725882_a_at) / RFU NR4A2 (11747474_a_at) / Fold change /veh NR4A2 (11747474_a_at) / RFU ABCC12 (11746883_a_at) / Fold change /veh ABCC12 (11746883_a_at) / RFU TMEM136 (11760407_x_at) / Fold change /veh TMEM136 (11760407_x_at) / RFU CLDN22 /// WWC2 (11732394_at) / Fold change /veh CLDN22 /// WWC2 (11732394_at) / RFU HLA-DPB1 (11760878_x_at) / Fold change /veh HLA-DPB1 (11760878_x_at) / RFU SPINT1 (11716480_a_at) / Fold change /veh SPINT1 (11716480_a_at) / RFU GAP43 (11754022_s_at) / Fold change /veh GAP43 (11754022_s_at) / RFU A4GNT (11735810_at) / Fold change /veh A4GNT (11735810_at) / RFU PRB3 (11715151_x_at) / Fold change /veh PRB3 (11715151_x_at) / RFU TUBB4B (11761932_at) / Fold change /veh TUBB4B (11761932_at) / RFU CAPN14 (11732068_a_at) / Fold change /veh CAPN14 (11732068_a_at) / RFU TMCC2 (11721928_a_at) / Fold change /veh TMCC2 (11721928_a_at) / RFU IRGQ (11745062_a_at) / Fold change /veh IRGQ (11745062_a_at) / RFU FAM174B (11720279_a_at) / Fold change /veh FAM174B (11720279_a_at) / RFU TMPRSS4 (11748680_a_at) / Fold change /veh TMPRSS4 (11748680_a_at) / RFU FAM212B (11763350_a_at) / Fold change /veh FAM212B (11763350_a_at) / RFU PLEKHG5 (11743358_a_at) / Fold change /veh PLEKHG5 (11743358_a_at) / RFU ZSCAN30 (11745921_a_at) / Fold change /veh ZSCAN30 (11745921_a_at) / RFU CMKLR1 (11741424_a_at) / Fold change /veh CMKLR1 (11741424_a_at) / RFU LOC101060620 /// MAPK8IP1 (11723275_at) / Fold change /veh LOC101060620 /// MAPK8IP1 (11723275_at) / RFU SPTSSB (11747773_x_at) / Fold change /veh SPTSSB (11747773_x_at) / RFU PRSS12 (11739890_at) / Fold change /veh PRSS12 (11739890_at) / RFU BIN1 (11741810_x_at) / Fold change /veh BIN1 (11741810_x_at) / RFU WNT11 (11732464_a_at) / Fold change /veh WNT11 (11732464_a_at) / RFU C10orf10 (11716521_a_at) / Fold change /veh C10orf10 (11716521_a_at) / RFU C5orf56 (11738089_at) / Fold change /veh C5orf56 (11738089_at) / RFU CYB561 (11721691_x_at) / Fold change /veh CYB561 (11721691_x_at) / RFU ANKRD19P (11752326_a_at) / Fold change /veh ANKRD19P (11752326_a_at) / RFU OR2T12 /// OR2T33 /// OR2T8 (11738714_s_at) / Fold change /veh OR2T12 /// OR2T33 /// OR2T8 (11738714_s_at) / RFU VCAN (11748164_a_at) / Fold change /veh VCAN (11748164_a_at) / RFU JSRP1 (11732532_at) / Fold change /veh JSRP1 (11732532_at) / RFU KRTAP10-11 (11738290_x_at) / Fold change /veh KRTAP10-11 (11738290_x_at) / RFU MYO3A (11730013_a_at) / Fold change /veh MYO3A (11730013_a_at) / RFU EBF3 (11725865_a_at) / Fold change /veh EBF3 (11725865_a_at) / RFU CAMK2N1 (11719241_x_at) / Fold change /veh CAMK2N1 (11719241_x_at) / RFU C5orf56 (11738088_a_at) / Fold change /veh C5orf56 (11738088_a_at) / RFU OLFML3 (11715873_a_at) / Fold change /veh OLFML3 (11715873_a_at) / RFU LOC100653217 /// NTM (11731650_a_at) / Fold change /veh LOC100653217 /// NTM (11731650_a_at) / RFU MAPK11 (11762145_a_at) / Fold change /veh MAPK11 (11762145_a_at) / RFU FIZ1 (11724087_x_at) / Fold change /veh FIZ1 (11724087_x_at) / RFU OASL (11726364_x_at) / Fold change /veh OASL (11726364_x_at) / RFU SOX15 (11748057_x_at) / Fold change /veh SOX15 (11748057_x_at) / RFU CD79A (11719716_a_at) / Fold change /veh CD79A (11719716_a_at) / RFU HIST1H1D (11736915_at) / Fold change /veh HIST1H1D (11736915_at) / RFU CASKIN2 (11723855_a_at) / Fold change /veh CASKIN2 (11723855_a_at) / RFU LOC730098 (11760151_x_at) / Fold change /veh LOC730098 (11760151_x_at) / RFU OR4N2 (11742367_at) / Fold change /veh OR4N2 (11742367_at) / RFU PRRT2 (11749266_a_at) / Fold change /veh PRRT2 (11749266_a_at) / RFU SNX32 (11753110_a_at) / Fold change /veh SNX32 (11753110_a_at) / RFU CDHR5 (11726645_a_at) / Fold change /veh CDHR5 (11726645_a_at) / RFU RCAN1 (11760418_a_at) / Fold change /veh RCAN1 (11760418_a_at) / RFU FAM167A (11723789_a_at) / Fold change /veh FAM167A (11723789_a_at) / RFU FAM26E (11764081_at) / Fold change /veh FAM26E (11764081_at) / RFU ISYNA1 (11749810_s_at) / Fold change /veh ISYNA1 (11749810_s_at) / RFU ACY1 (11761880_at) / Fold change /veh ACY1 (11761880_at) / RFU 11764098_at / Fold change /veh 11764098_at / RFU SAMD14 (11745864_x_at) / Fold change /veh SAMD14 (11745864_x_at) / RFU NPB (11741838_a_at) / Fold change /veh NPB (11741838_a_at) / RFU TMPRSS6 (11731388_a_at) / Fold change /veh TMPRSS6 (11731388_a_at) / RFU KRTAP10-2 (11738614_at) / Fold change /veh KRTAP10-2 (11738614_at) / RFU ARHGAP8 /// PRR5-ARHGAP8 (11727945_x_at) / Fold change /veh ARHGAP8 /// PRR5-ARHGAP8 (11727945_x_at) / RFU KRTAP5-7 /// NADSYN1 (11734609_at) / Fold change /veh KRTAP5-7 /// NADSYN1 (11734609_at) / RFU RASL12 (11751679_a_at) / Fold change /veh RASL12 (11751679_a_at) / RFU CDKN2B (11736163_a_at) / Fold change /veh CDKN2B (11736163_a_at) / RFU PRF1 (11729649_at) / Fold change /veh PRF1 (11729649_at) / RFU, ZNF638 /// ZNF638-IT1 / Fold change vs veh, ZNF638 /// ZNF638-IT1 / RFU, PANK3 / Fold change vs veh, PANK3 / RFU, SH3YL1 / Fold change vs veh, SH3YL1 / RFU, ZEB2 / Fold change vs veh, ZEB2 / RFU, NRIP1 / Fold change vs veh, NRIP1 / RFU, PTTG1IP / Fold change vs veh, PTTG1IP / RFU, CAPN2 / Fold change vs veh, CAPN2 / RFU, MED14 / Fold change vs veh, MED14 / RFU, SNORA58 / Fold change vs veh, SNORA58 / RFU, C1orf63 / Fold change vs veh, C1orf63 / RFU, LRRFIP1 / Fold change vs veh, LRRFIP1 / RFU, NDUFAF7 / Fold change vs veh, NDUFAF7 / RFU, SLC12A2 / Fold change vs veh, SLC12A2 / RFU, IBTK / Fold change vs veh, IBTK / RFU, ESF1 / Fold change vs veh, ESF1 / Fold change vs veh, TMEM50B / RFU, TAOK1 / Fold change vs veh, TAOK1 / RFU, ACBD3 / Fold change vs veh, ACBD3 / RFU, TMA16 / Fold change vs veh, TMA16 / RFU, RWDD3 / Fold change vs veh, RWDD3 / RFU, BCAT1 / Fold change vs veh, BCAT1 / RFU, EDEM3 / Fold change vs veh, EDEM3 / RFU, TMEM33 / Fold change vs veh, TMEM33 / RFU, WDR75 / Fold change vs veh, WDR75 / RFU, AHCTF1 / Fold change vs veh, AHCTF1 / RFU, TFRC / Fold change vs veh, TFRC / RFU, ZDHHC17 / Fold change vs veh, ZDHHC17 / RFU, NOM1 / Fold change vs veh, NOM1 / RFU, ARL8B / Fold change vs veh, ARL8B / RFU, ZBTB11 / Fold change vs veh, ZBTB11 / RFU, TAMM41 / Fold change vs veh, TAMM41 / RFU, KIAA1704 /// LOC100996395 / Fold change vs veh, KIAA1704 /// LOC100996395 / RFU, ING1 / Fold change vs veh, ING1 / RFU, TRMT61B / Fold change vs veh, TRMT61B / RFU, FUBP3 / Fold change vs veh, FUBP3 / RFU, TP53 / Fold change vs veh, TP53 / RFU, TNKS2 / Fold change vs veh, TNKS2 / RFU, ZFP14 / Fold change vs veh, ZFP14 / RFU, ACTR2 / Fold change vs veh, ACTR2 / RFU, PPP3R1 / Fold change vs veh, PPP3R1 / RFU, PIK3R1 / Fold change vs veh, PIK3R1 / RFU, HNRNPA1 / Fold change vs veh, HNRNPA1 / RFU, RNF170 / Fold change vs veh, RNF170 / RFU, ZNF28 / Fold change vs veh, ZNF28 / RFU, RNGTT / Fold change vs veh, RNGTT / RFU, OGT / Fold change vs veh, OGT / RFU, BRD1 / Fold change vs veh, BRD1 / RFU, MARS / Fold change vs veh, MARS / RFU, ZNF655 / Fold change vs veh, ZNF655 / RFU, FAHD1 / Fold change vs veh, FAHD1 / RFU, BDP1 / Fold change vs veh, BDP1 / RFU, LRRCC1 / Fold change vs veh, LRRCC1 / RFU, ARID1A / Fold change vs veh, ARID1A / RFU, ZNF146 / Fold change vs veh, ZNF146 / RFU, ZNF330 / Fold change vs veh, ZNF330 / RFU, GPN3 / Fold change vs veh, GPN3 / RFU, C9orf123 / Fold change vs veh, C9orf123 / RFU, N4BP2L2 / Fold change vs veh, N4BP2L2 / RFU, ARFIP1 / Fold change vs veh, ARFIP1 / RFU, FAM179B / Fold change vs veh, FAM179B / RFU, BCL10 / Fold change vs veh, BCL10 / RFU, UHRF1BP1L / Fold change vs veh, UHRF1BP1L / RFU, BET1 / Fold change vs veh, BET1 / RFU, CNOT2 / Fold change vs veh, CNOT2 / RFU, ZNF268 / Fold change vs veh, ZNF268 / Fold change vs veh, ZNF507 / RFU, DGCR2 / Fold change vs veh, DGCR2 / RFU, WDSUB1 / Fold change vs veh, WDSUB1 / Fold change vs veh, HSP90B1 /// MIR3652 / RFU, ADSS / Fold change vs veh, ADSS / RFU, GK / Fold change vs veh, GK / RFU, ZNF148 / Fold change vs veh, ZNF148 / RFU, TAF9 / Fold change vs veh, TAF9 / RFU, SLC1A5 / Fold change vs veh, SLC1A5 / RFU, SLMO2 / Fold change vs veh, SLMO2 / RFU, ABCC4 / Fold change vs veh, ABCC4 / RFU, LOC101060439 /// RAP1B / Fold change vs veh, LOC101060439 /// RAP1B / RFU, RFX7 / Fold change vs veh, RFX7 / RFU, GTPBP10 / Fold change vs veh, GTPBP10 / RFU, CNEP1R1 / Fold change vs veh, CNEP1R1 / RFU, BIVM-ERCC5 /// ERCC5 / Fold change vs veh, BIVM-ERCC5 /// ERCC5 / RFU, ILF3 / Fold change vs veh, ILF3 / RFU 11762660_at / Fold change /veh 11762660_at / RFU VCAN (11757783_s_at) / Fold change /veh VCAN (11757783_s_at) / RFU DDX43 (11728927_at) / Fold change /veh DDX43 (11728927_at) / RFU KRT8 (11758188_x_at) / Fold change /veh KRT8 (11758188_x_at) / RFU NKD1 (11759106_at) / Fold change /veh NKD1 (11759106_at) / RFU SRD5A1 (11742802_a_at) / Fold change /veh SRD5A1 (11742802_a_at) / RFU TPSAB1 /// TPSB2 (11721975_s_at) / Fold change /veh TPSAB1 /// TPSB2 (11721975_s_at) / RFU GSTM3 (11746129_a_at) / Fold change /veh GSTM3 (11746129_a_at) / RFU IL23R (11737362_x_at) / Fold change /veh IL23R (11737362_x_at) / RFU TMEM51 (11727254_a_at) / Fold change /veh TMEM51 (11727254_a_at) / RFU PIWIL2 (11732686_x_at) / Fold change /veh PIWIL2 (11732686_x_at) / RFU ORM1 (11744905_x_at) / Fold change /veh ORM1 (11744905_x_at) / RFU CCDC152 (11743942_at) / Fold change /veh CCDC152 (11743942_at) / RFU ECM1 (11717891_a_at) / Fold change /veh ECM1 (11717891_a_at) / RFU IL23R (11748794_a_at) / Fold change /veh IL23R (11748794_a_at) / RFU TNFAIP8L3 (11732012_x_at) / Fold change /veh TNFAIP8L3 (11732012_x_at) / RFU MBOAT4 (11741988_at) / Fold change /veh MBOAT4 (11741988_at) / RFU 11764193_at / Fold change /veh 11764193_at / RFU TMEM53 (11763286_at) / Fold change /veh TMEM53 (11763286_at) / RFU MAGEB2 (11727129_at) / Fold change /veh MAGEB2 (11727129_at) / RFU TMEM200A (11744735_a_at) / Fold change /veh TMEM200A (11744735_a_at) / RFU CCDC152 (11751479_a_at) / Fold change /veh CCDC152 (11751479_a_at) / RFU FAM211A (11726209_a_at) / Fold change /veh FAM211A (11726209_a_at) / RFU RGS16 (11746705_a_at) / Fold change /veh RGS16 (11746705_a_at) / RFU VCAN (11755009_s_at) / Fold change /veh VCAN (11755009_s_at) / RFU RHOB (11743442_s_at) / Fold change /veh RHOB (11743442_s_at) / RFU RGS16 (11720943_a_at) / Fold change /veh RGS16 (11720943_a_at) / RFU RGS16 (11720944_at) / Fold change /veh RGS16 (11720944_at) / RFU, VPS4B / Fold change vs veh, VPS4B / RFU, CREB1 / Fold change vs veh, CREB1 / RFU, DNAJC13 / Fold change vs veh, DNAJC13 / RFU, GNAQ / Fold change vs veh, GNAQ / RFU, CDK5R1 / Fold change vs veh, CDK5R1 / RFU, ZRANB3 / Fold change vs veh, ZRANB3 / RFU, CUL4A / Fold change vs veh, CUL4A / RFU, CCNY / Fold change vs veh, CCNY / RFU, UFL1 / Fold change vs veh, UFL1 / RFU, COG3 / Fold change vs veh, COG3 / RFU, DIAPH2 / Fold change vs veh, DIAPH2 / RFU, SKA2 / Fold change vs veh, SKA2 / RFU, AFF3 / Fold change vs veh, AFF3 / RFU, LMF1 / Fold change vs veh, LMF1 / RFU, IPO11 / Fold change vs veh, IPO11 / RFU, DFFB / Fold change vs veh, DFFB / RFU, FOXP1 / Fold change vs veh, FOXP1 / RFU, CARD8 / Fold change vs veh, CARD8 / RFU, STRN3 / Fold change vs veh, STRN3 / RFU, ADK / Fold change vs veh, ADK / RFU, RASSF2 / Fold change vs veh, RASSF2 / RFU, WIPF1 / Fold change vs veh, WIPF1 / RFU, LARP1B / Fold change vs veh, LARP1B / RFU, RASA1 / Fold change vs veh, RASA1 / RFU, RB1 / Fold change vs veh, RB1 / RFU, PPFIA1 / Fold change vs veh, PPFIA1 / RFU, MAT2A / Fold change vs veh, MAT2A / RFU, CCT5 / Fold change vs veh, CCT5 / RFU, WDR92 / Fold change vs veh, WDR92 / RFU, CUX1 / Fold change vs veh, CUX1 / RFU, TTC7A / Fold change vs veh, TTC7A / RFU, TMEM135 / Fold change vs veh, TMEM135 / RFU, DEPTOR / Fold change vs veh, DEPTOR / RFU, CPM / Fold change vs veh, CPM / RFU, DNAJB6 / Fold change vs veh, DNAJB6 / RFU, CACNA2D3 / Fold change vs veh, CACNA2D3 / RFU, DTX4 / Fold change vs veh, DTX4 / RFU, TFCP2 / Fold change vs veh, TFCP2 / RFU, GMCL1 /// GMCL1P1 / Fold change vs veh, GMCL1 /// GMCL1P1 / RFU, AEBP2 / Fold change vs veh, AEBP2 / RFU, SNHG1 /// SNORD22 /// SNORD25 /// SNORD26 /// SNORD27 /// SNORD28 /// SNORD29 /// SNORD31 / Fold change vs veh, SNHG1 /// SNORD22 /// SNORD25 /// SNORD26 /// SNORD27 /// SNORD28 /// SNORD29 /// SNORD31 / Fold change (Aza/veh), C12orf56 (ProbeSet 11735607_a_at) / Fold change (ACY-1035/veh), C12orf56 (ProbeSet 11735607_a_at) / Fold change (Aza/veh), FGFR1OP (ProbeSet 11751329_s_at) / Fold change (ACY-1035/veh), FGFR1OP (ProbeSet 11751329_s_at) / Fold change (Aza/veh), VPS36 (ProbeSet 11739960_a_at) / Fold change (ACY-1035/veh), VPS36 (ProbeSet 11739960_a_at) / RFU SYPL1 (11715823_x_at) / Fold change /veh SYPL1 (11715823_x_at) / RFU IGFBP7 (11715501_s_at) / Fold change /veh IGFBP7 (11715501_s_at) / RFU REEP3 (11722064_at) / Fold change /veh REEP3 (11722064_at) / RFU IGLL1 (11728026_x_at) / Fold change /veh IGLL1 (11728026_x_at): dose or concentration left out as unconfirmed
Conditions: MV-4-11 cells, 48 hours

Nc1ncn([C@@H]2O[C@H](CO)[C@@H](O)[C@H]2O)c(=O)n1 [azacitidine]
Fold change /veh HIST1H1D (11736915_at): 1.16
